Data reported in ChEMBL document CHEMBL1121921, “Synthesis and evaluation of the male antifertility properties of a series of N-unsubstituted sulfamates” (1981).

How the values were obtained:
Type in all cases: functional
Rattus norvegicus [1] = assay: Compound was evaluated for male antifertility activity by oral administration in propylene glycol to male Sprague-Dawley rats for 14 consecutive days at dose of 0.40 mmol/kg
Rattus norvegicus [2] = assay: Compound was evaluated for male antifertility activity by oral administration in propylene glycol to male Sprague-Dawley rats for 14 consecutive days at dose of 0.36 mmol/kg
Rattus norvegicus [3] = assay: Compound was evaluated for male antifertility activity by oral administration in propylene glycol to male Sprague-Dawley rats for 14 consecutive days at dose of 0.43 mmol/kg
Rattus norvegicus [4] = assay: Compound was evaluated for male antifertility activity by oral administration in propylene glycol to male Sprague-Dawley rats for 14 consecutive days at dose of 0.64 mmol/kg
Rattus norvegicus [5] = assay: Compound was evaluated for male antifertility activity by oral administration in propylene glycol to male Sprague-Dawley rats for 14 consecutive days at dose of 0.30 mmol/kg
Rattus norvegicus [6] = assay: Compound was evaluated for male antifertility activity by oral administration in propylene glycol to male Sprague-Dawley rats for 14 consecutive days at dose of 0.18 mmol/kg
Rattus norvegicus [7] = assay: Compound was evaluated for male antifertility activity by oral administration in propylene glycol to male Sprague-Dawley rats for 14 consecutive days at dose of 0.68 mmol/kg
Rattus norvegicus [8] = assay: Compound was evaluated for male antifertility activity by oral administration in propylene glycol to male Sprague-Dawley rats for 14 consecutive days at dose of 0.04 mmol/kg
Rattus norvegicus [9] = assay: Compound was evaluated for male antifertility activity by oral administration in propylene glycol to male Sprague-Dawley rats for 14 consecutive days at dose of 0.34 mmol/kg
Rattus norvegicus [10] = assay: Compound was evaluated for male antifertility activity by oral administration in propylene glycol to male Sprague-Dawley rats for 14 consecutive days at dose of 0.05 mmol/kg
Rattus norvegicus [11] = assay: Compound was evaluated for male antifertility activity by oral administration in propylene glycol to male Sprague-Dawley rats for 14 consecutive days at dose of 0.07 mmol/kg
Rattus norvegicus [12] = assay: Compound was evaluated for male antifertility activity by oral administration in propylene glycol to male Sprague-Dawley rats for 14 consecutive days at dose of 0.09 mmol/kg

For `CC(OS(N)(=O)=O)C(C)OS(N)(=O)=O` (stereo not drawn), the No. of implants/pregnancy (Rattus norvegicus [1]) was 15, the “No. of males cohabited” value (Rattus norvegicus [1]) was 4 and the “No. of males fertile” value (Rattus norvegicus [1]) was 3. The “No. of males mated” value (Rattus norvegicus [1]) was 3 and the Resorbing implants (Rattus norvegicus [1]) was 0%.
For `NS(=O)(=O)OC1CCCCC1OS(N)(=O)=O` (stereo not drawn), the No. of implants/pregnancy (Rattus norvegicus [2]) was 14, the “No. of males cohabited” value (Rattus norvegicus [2]) was 5 and the “No. of males fertile” value (Rattus norvegicus [2]) was 5. For the same molecule, the “No. of males mated” value (Rattus norvegicus [2]) was 5 and the Resorbing implants (Rattus norvegicus [2]) was 4.4%.
With `NS(=O)(=O)OCCCOS(N)(=O)=O` the No. of implants/pregnancy (Rattus norvegicus [3]) was 9.3, the “No. of males cohabited” value (Rattus norvegicus [3]) was 5 and the “No. of males fertile” value (Rattus norvegicus [3]) was 4. The “No. of males mated” value (Rattus norvegicus [3]) was 5, the Resorbing implants (Rattus norvegicus [3]) was 73.6% and the No. of implants/pregnancy (Rattus norvegicus [4]) was 6.7. For the same molecule, the “No. of males cohabited” value (Rattus norvegicus [4]) was 5, the “No. of males mated” value (Rattus norvegicus [4]) was 5 and the Resorbing implants (Rattus norvegicus [4]) was 94.4%.
In the case of `NS(=O)(=O)OCCCCCCCCCCOS(N)(=O)=O`, the No. of implants/pregnancy (Rattus norvegicus [5]) is reported as 12.5, the “No. of males cohabited” value (Rattus norvegicus [5]) is reported as 5 and the “No. of males fertile” value (Rattus norvegicus [5]) is reported as 4. The “No. of males mated” value (Rattus norvegicus [5]) was 5 and the Resorbing implants (Rattus norvegicus [5]) was 17.3%.
In the case of `NS(=O)(=O)OCCOS(N)(=O)=O`, the No. of implants/pregnancy (Rattus norvegicus [6]) is reported as 10.8, the “No. of males cohabited” value (Rattus norvegicus [6]) is reported as 10 and the “No. of males fertile” value (Rattus norvegicus [6]) is reported as 8. For the same molecule, the “No. of males mated” value (Rattus norvegicus [6]) was 9, the Resorbing implants (Rattus norvegicus [6]) was 40% and the No. of implants/pregnancy (Rattus norvegicus [2]) was 9.8. The “No. of males cohabited” value (Rattus norvegicus [2]) was 8, the “No. of males fertile” value (Rattus norvegicus [2]) was 1 and the “No. of males mated” value (Rattus norvegicus [2]) was 7. For the same molecule, the Resorbing implants (Rattus norvegicus [2]) was 98.2%, the “No. of males cohabited” value (Rattus norvegicus [7]) was 5 and the “No. of males fertile” value (Rattus norvegicus [7]) was 0. The “No. of males mated” value (Rattus norvegicus [7]) was 5.
In the case of `NS(=O)(=O)OCCCCOS(N)(=O)=O`, the No. of implants/pregnancy (Rattus norvegicus [8]) is reported as 10.2, the “No. of males cohabited” value (Rattus norvegicus [8]) is reported as 5 and the “No. of males fertile” value (Rattus norvegicus [8]) is reported as 5. The “No. of males mated” value (Rattus norvegicus [8]) was 5, the Resorbing implants (Rattus norvegicus [8]) was 56% and the “No. of males cohabited” value (Rattus norvegicus [1]) was 5. The “No. of males fertile” value (Rattus norvegicus [1]) was 0 and the “No. of males mated” value (Rattus norvegicus [1]) was 5.
For `CCCC(C)(COS(N)(=O)=O)COS(N)(=O)=O`, the No. of implants/pregnancy (Rattus norvegicus [9]) was 15.5, the “No. of males cohabited” value (Rattus norvegicus [9]) was 4 and the “No. of males fertile” value (Rattus norvegicus [9]) was 4. The “No. of males mated” value (Rattus norvegicus [9]) was 4 and the Resorbing implants (Rattus norvegicus [9]) was 12.5%.
With `CS(=O)(=O)OCCOS(C)(=O)=O` [ETHANE DIMETHANE SULFONATE] the No. of implants/pregnancy (Rattus norvegicus [10]) was 9.9, the “No. of males cohabited” value (Rattus norvegicus [10]) was 7 and the “No. of males fertile” value (Rattus norvegicus [10]) was 6. The “No. of males mated” value (Rattus norvegicus [10]) was 7, the Resorbing implants (Rattus norvegicus [10]) was 35.2% and the No. of implants/pregnancy (Rattus norvegicus [11]) was 12.3. For the same molecule, the “No. of males cohabited” value (Rattus norvegicus [11]) was 5, the “No. of males fertile” value (Rattus norvegicus [11]) was 3 and the “No. of males mated” value (Rattus norvegicus [11]) was 4. The Resorbing implants (Rattus norvegicus [11]) was 30.3%, the “No. of males cohabited” value (Rattus norvegicus [12]) was 5 and the “No. of males fertile” value (Rattus norvegicus [12]) was 0. For the same molecule, the “No. of males mated” value (Rattus norvegicus [12]) was 4.
